Experiment [1] addresses T1, α3β4α5 nAChR (Homo sapiens, UniProt P30532+P30926+P32297). Conditions: agonist binding site.
Experiment [2] deals with T1, α3β4α5 nAChR. In words: biochemical.
For experiment [3], the target named is α3β4 nAChR (Homo sapiens, UniProt P30926+P32297). In words: biochemical.
Chain of α3β4 nAChR (P32297 32-505): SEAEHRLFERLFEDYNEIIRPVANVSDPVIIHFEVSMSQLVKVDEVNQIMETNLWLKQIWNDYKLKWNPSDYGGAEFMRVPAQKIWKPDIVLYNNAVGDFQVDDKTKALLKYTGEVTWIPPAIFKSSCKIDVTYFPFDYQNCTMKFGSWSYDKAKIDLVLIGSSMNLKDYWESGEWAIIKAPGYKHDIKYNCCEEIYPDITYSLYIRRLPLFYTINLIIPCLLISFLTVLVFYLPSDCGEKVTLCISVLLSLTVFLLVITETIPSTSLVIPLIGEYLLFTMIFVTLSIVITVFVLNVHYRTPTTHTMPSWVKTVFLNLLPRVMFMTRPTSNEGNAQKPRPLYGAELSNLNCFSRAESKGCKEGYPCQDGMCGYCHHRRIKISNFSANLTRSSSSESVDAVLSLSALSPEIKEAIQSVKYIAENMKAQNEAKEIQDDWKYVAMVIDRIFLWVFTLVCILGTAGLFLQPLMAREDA
Chain of α3β4 nAChR (P30926 22-498): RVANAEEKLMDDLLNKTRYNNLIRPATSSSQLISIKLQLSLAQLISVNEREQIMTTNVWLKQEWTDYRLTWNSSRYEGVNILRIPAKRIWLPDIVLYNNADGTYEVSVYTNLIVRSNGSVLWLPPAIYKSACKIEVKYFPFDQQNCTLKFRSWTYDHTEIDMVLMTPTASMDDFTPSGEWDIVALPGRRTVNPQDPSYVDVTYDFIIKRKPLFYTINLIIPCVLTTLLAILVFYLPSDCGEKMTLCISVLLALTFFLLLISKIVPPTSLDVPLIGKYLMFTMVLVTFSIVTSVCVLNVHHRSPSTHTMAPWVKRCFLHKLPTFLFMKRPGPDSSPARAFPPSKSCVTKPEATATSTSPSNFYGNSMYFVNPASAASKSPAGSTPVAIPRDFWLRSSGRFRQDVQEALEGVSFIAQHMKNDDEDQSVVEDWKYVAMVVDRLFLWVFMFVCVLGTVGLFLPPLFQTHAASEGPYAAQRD

T1 sequence (P32297 32-505): as the sequence (P32297 32-505) above
T1 sequence (P30926 22-498): as the sequence (P30926 22-498) above
T1 sequence (P30532 23-468): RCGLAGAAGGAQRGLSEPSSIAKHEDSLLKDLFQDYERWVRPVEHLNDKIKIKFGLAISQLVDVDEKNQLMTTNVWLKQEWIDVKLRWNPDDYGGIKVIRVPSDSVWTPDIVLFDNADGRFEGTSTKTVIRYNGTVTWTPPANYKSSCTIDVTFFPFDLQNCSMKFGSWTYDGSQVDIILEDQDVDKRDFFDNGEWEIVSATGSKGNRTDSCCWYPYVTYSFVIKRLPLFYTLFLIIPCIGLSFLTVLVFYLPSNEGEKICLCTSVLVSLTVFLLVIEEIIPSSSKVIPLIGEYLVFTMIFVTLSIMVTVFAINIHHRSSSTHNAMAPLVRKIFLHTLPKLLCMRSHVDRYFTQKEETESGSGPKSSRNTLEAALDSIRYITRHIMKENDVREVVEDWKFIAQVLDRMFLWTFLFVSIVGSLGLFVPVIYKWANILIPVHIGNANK

`c1cncc([C@@H]2CCCCN2)c1` [Anabasine]: in experiment [1], the “higher affinity for the α3β4α5 nAChR vs the α3β4 nAChR” value was 10 fold; the “subtype selectivity between α3β4 and α3β4α5 nicotinic receptors” value was “selective for the α3β4α5 nicotinic receptor”. Besides, the inhibition constant Ki in experiment [2] worked out at 67.5 ± 25.8 nM. In experiment [3], this compound had a Ki of 528 ± 136 nM.

In experiment [2], `O=c1cccc2n1C[C@@H]1CNC[C@H]2C1` [Cytisine] yielded a Kd of 5.4 nM and a Ki of 5.4 ± 3.5 nM. In experiment [3], this compound had a Kd of 8.5 nM and a Ki of 8.52 ± 5.7 nM.

With `c1cncc([C@@H]2CCCN2)c1` [Nornicotine], the “subtype selectivity between α3β4 and α3β4α5 nicotinic receptors” value in experiment [1] is on record as “no subtype selectivity”. In experiment [2], this compound came in with a Kd of 21 nM and a Ki of 20.8 ± 11.7 nM. In addition, in experiment [3], the Kd was 36 nM and the Ki amounted to 35.6 ± 18.9 nM.

The record behind these values is publication PMC4748418 (Journal of chromatography. A, 2015).
